Laboratory results: paper PMC10951314 (Nature Communications, 2024)
pKd: −log10 of the molar value.

Assays:
MavL42-435 = target: T1, MavL42-435 (Legionella pneumophila, UniProt Q5ZSJ1)
T1 construct: gene lpg2526

MavL42-435-UbVME = target: T2, MavL42-435-UbVME (Legionella pneumophila, UniProt Q5ZSJ1)
T2 construct: gene lpg2526

T1 sequence (Q5ZSJ1 42-435 limits assumed): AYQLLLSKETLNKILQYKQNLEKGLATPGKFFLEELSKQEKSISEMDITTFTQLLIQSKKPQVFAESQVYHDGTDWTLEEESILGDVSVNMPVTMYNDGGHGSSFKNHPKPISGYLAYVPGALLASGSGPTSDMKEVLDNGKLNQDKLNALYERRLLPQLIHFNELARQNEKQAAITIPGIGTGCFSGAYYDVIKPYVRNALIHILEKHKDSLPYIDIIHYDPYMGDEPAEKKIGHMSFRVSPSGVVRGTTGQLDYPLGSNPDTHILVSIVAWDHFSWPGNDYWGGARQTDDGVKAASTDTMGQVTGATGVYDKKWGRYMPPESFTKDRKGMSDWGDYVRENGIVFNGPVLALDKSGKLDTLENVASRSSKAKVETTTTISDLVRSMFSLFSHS

## Nc1ncnc2c1ncn2[C@@H]1O[C@H](COP(=O)(O)OP(=O)(O)OC[C@H]2OC(O)[C@H](O)[C@@H]2O)[C@@H](O)[C@H]1O (some centres unmarked) [ADPR]
MavL42-435
  pKd: 4.59
MavL42-435-UbVME
  X-ray crystal structure, 2.15 Å (crystal soak): we observed electron density for ADPR in one of the MavL-UbVME subunits
